Results reported in patent US20220409620A1, “REDUCING IMMUNOGENICITY TO PEGLOTICASE” (Horizon Pharma Rheumatology LLC, priority 2016, published 2022).

Test system: adult patients with uncontrolled gout
Test: Health Assessment Questionnaire (HAQ-DI, HAQ pain, HAQ health), open-label study
Format: in vivo, human
Set-up: key to HAQ-Health, Observed, Median / HAQ-Health, Change from Baseline, Median: 0-100 scale; 0 = very well, 100 = very poor health; key to HAQ-DI, Observed, Median / HAQ-DI, Change from Baseline, Median: HAQ-DI scale 0-3; 0 = no difficulty, 3 = unable to do
Conditions: mITT Population
Experimental: Quality-of-Life Assessment: The HAQ was administered at the Screening and Week −4 or week −6 (prior to the first dose of MTX) Visits during the MTX Run-in Period for the open-label and randomized studies, respectively; prior to pegloticase infusion at the Day 1 and Weeks 14, 24 and 36 Visits or at the Day 1 and weeks 6, 14, 20, 24, 30, 36, and 44 visits during the Pegloticase+IMM Period for the open-label and randomized studies, respectively; at the End of Pegloticase Infusions Visit (if applicable), the Week 52/End of Study/Early Termination Visit and the Post Treatment Periods 3 and 6 Month Follow-up Visits (open-label study). The HAQ-DI is a self-report functional status instrument that can be filled out by a subject in less than 5 minutes and requires 1 minute to score. The index measures disability over the past week by asking a total of 20 questions covering 8 domains of function: dressing and grooming, arising, eating, walking, hygiene, reach, grip, and usual activities. There are at least 2 questions in each domain and the 8 domains represent a comprehensive set of functional activities. The HAQ-DI is calculated by scoring the answer to each question in the HAQ from 0 to 3, with 0 representing the ability to do without any difficulty, and 3 representing inability to do. Any activity that requires assistance from another individual or requires the use of an assistive device raises a 0 or 1 score to a 2. The highest score for each of the 8 domains is summed (range from 0 to 24) and divided by 8 to yield, on a scale with 25 possible values, a Functional Disability Index with a range from 0 to 3. The disability index is based on the number of domains answered and is computed only if the subject completes answers to at least 6 domains. The HAQ pain scale asks subjects to record how much pain they have had in the past week on a scale of 0 to 100, where zero represents “no pain” and 100 represents “severe pain”. The HAQ health scale is a measure of overall health. Subjects are asked to rate how well they are doing on a score of 0 to 100, where zero represents “very well” and 100 represents “very poor” health.

[1] = Week 52/ET, Methotrexate Baseline
[2] = Week 52/ET, Pegloticase Baseline

pegloticase
HAQ-Health, Observed, Mean (SD) (Week 14, Pegloticase Baseline): 36.6 (33.87) | HAQ-Health, Observed, Median (Week 14, Pegloticase Baseline): 16.5 | HAQ-Pain, Change from Baseline, Mean (SD) (Week 14, Pegloticase Baseline): −16.0 (30.65) | HAQ-Pain, Change from Baseline, Median (Week 14, Pegloticase Baseline): −12.5 | HAQ-Pain, Observed, Mean (SD) (Week 14, Pegloticase Baseline): 27.1 (26.25) | HAQ-Pain, Observed, Median (Week 14, Pegloticase Baseline): 15.0 | HAQ-DI, Change from Baseline, Mean (SD) (Week 24, Methotrexate Baseline): −0.5 (0.74) | HAQ-DI, Change from Baseline, Median (Week 24, Methotrexate Baseline): −0.1 | HAQ-DI, Observed, Mean (SD) (Week 24, Methotrexate Baseline): 0.2 (0.33) | HAQ-DI, Observed, Median (Week 24, Methotrexate Baseline): 0.1 | HAQ-Health, Change from Baseline, Mean (SD) (Week 24, Methotrexate Baseline): −33.2 (36.01) | HAQ-Health, Change from Baseline, Median (Week 24, Methotrexate Baseline): −40.0 | HAQ-Health, Observed, Mean (SD) (Week 24, Methotrexate Baseline): 21.4 (26.65) | HAQ-Health, Observed, Median (Week 24, Methotrexate Baseline): 10.0 | HAQ-Pain, Change from Baseline, Mean (SD) (Week 24, Methotrexate Baseline): −19.2 (35.13) | HAQ-Pain, Change from Baseline, Median (Week 24, Methotrexate Baseline): −10.0 | HAQ-Pain, Observed, Mean (SD) (Week 24, Methotrexate Baseline): 25.4 (27.50) | HAQ-Pain, Observed, Median (Week 24, Methotrexate Baseline): 20.0 | HAQ-DI, Change from Baseline, Mean (SD) (Week 24, Pegloticase Baseline): −0.6 (0.85) | HAQ-DI, Change from Baseline, Median (Week 24, Pegloticase Baseline): −0.1 | HAQ-DI, Observed, Mean (SD) (Week 24, Pegloticase Baseline): 0.2 (0.33) | HAQ-DI, Observed, Median (Week 24, Pegloticase Baseline): 0.1 | HAQ-Health, Change from Baseline, Mean (SD) (Week 24, Pegloticase Baseline): −19.7 (43.38) | HAQ-Health, Change from Baseline, Median (Week 24, Pegloticase Baseline): −10.0 | HAQ-Health, Observed, Mean (SD) (Week 24, Pegloticase Baseline): 21.4 (26.65) | HAQ-Health, Observed, Median (Week 24, Pegloticase Baseline): 10.0 | HAQ-Pain, Change from Baseline, Mean (SD) (Week 24, Pegloticase Baseline): −16.7 (38.53) | HAQ-Pain, Change from Baseline, Median (Week 24, Pegloticase Baseline): −10.0 | HAQ-Pain, Observed, Mean (SD) (Week 24, Pegloticase Baseline): 25.4 (27.50) | HAQ-Pain, Observed, Median (Week 24, Pegloticase Baseline): 20.0 | HAQ-DI, Change from Baseline, Mean (SD) (Week 36, Methotrexate Baseline): −0.5 (0.80) | HAQ-DI, Change from Baseline, Median (Week 36, Methotrexate Baseline): 0.0 | HAQ-DI, Observed, Mean (SD) (Week 36, Methotrexate Baseline): 0.3 (0.49) | HAQ-DI, Observed, Median (Week 36, Methotrexate Baseline): 0.1 | HAQ-Health, Change from Baseline, Mean (SD) (Week 36, Methotrexate Baseline): −27.7 (42.59) | HAQ-Health, Change from Baseline, Median (Week 36, Methotrexate Baseline): −10.0 | HAQ-Health, Observed, Mean (SD) (Week 36, Methotrexate Baseline): 27.3 (35.18) | HAQ-Health, Observed, Median (Week 36, Methotrexate Baseline): 10.0 | HAQ-Pain, Change from Baseline, Mean (SD) (Week 36, Methotrexate Baseline): −22.9 (28.41) | HAQ-Pain, Change from Baseline, Median (Week 36, Methotrexate Baseline): −20.0 | HAQ-Pain, Observed, Mean (SD) (Week 36, Methotrexate Baseline): 21.0 (27.60) | HAQ-Pain, Observed, Median (Week 36, Methotrexate Baseline): 10.0 | HAQ-DI, Change from Baseline, Mean (SD) (Week 36, Pegloticase Baseline): −0.5 (0.86) | HAQ-DI, Change from Baseline, Median (Week 36, Pegloticase Baseline): −0.1 | HAQ-DI, Observed, Mean (SD) (Week 36, Pegloticase Baseline): 0.3 (0.49) | HAQ-DI, Observed, Median (Week 36, Pegloticase Baseline): 0.1 | HAQ-Health, Change from Baseline, Mean (SD) (Week 36, Pegloticase Baseline): −16.2 (50.72) | HAQ-Health, Change from Baseline, Median (Week 36, Pegloticase Baseline): −10.0 | HAQ-Health, Observed, Mean (SD) (Week 36, Pegloticase Baseline): 27.3 (35.18) | HAQ-Health, Observed, Median (Week 36, Pegloticase Baseline): 10.0 | HAQ-Pain, Change from Baseline, Mean (SD) (Week 36, Pegloticase Baseline): −19.9 (20.25) | HAQ-Pain, Change from Baseline, Median (Week 36, Pegloticase Baseline): −20.0 | HAQ-Pain, Observed, Mean (SD) (Week 36, Pegloticase Baseline): 21.0 (27.60) | HAQ-Pain, Observed, Median (Week 36, Pegloticase Baseline): 10.0 | HAQ-DI, Change from Baseline, Mean (SD) [1]: −0.6 (0.87) | HAQ-DI, Change from Baseline, Median [1]: −0.1 | HAQ-DI, Observed, Mean (SD) [1]: 0.4 (0.29) | HAQ-DI, Observed, Median [1]: 0.3 | HAQ-Health, Change from Baseline, Mean (SD) [1]: −16.7 (59.23) | HAQ-Health, Change from Baseline, Median [1]: 15.0 | HAQ-Health, Observed, Mean (SD) [1]: 60.0 (48.22) | HAQ-Health, Observed, Median [1]: 80.0 | HAQ-Pain, Change from Baseline, Mean (SD) [1]: −42.7 (18.04) | HAQ-Pain, Change from Baseline, Median [1]: −44.0 | HAQ-Pain, Observed, Mean (SD) [1]: 4.0 (5.20) | HAQ-Pain, Observed, Median [1]: 1.0 | HAQ-DI, Change from Baseline, Mean (SD) [2]: −0.8 (1.08) | HAQ-DI, Change from Baseline, Median [2]: −0.1 | HAQ-DI, Observed, Mean (SD) [2]: 0.4 (0.29) | HAQ-DI, Observed, Median [2]: 0.3 | HAQ-Health, Change from Baseline, Mean (SD) [2]: 23.3 (54.85) | HAQ-Health, Change from Baseline, Median [2]: 5.0 | HAQ-Health, Observed, Mean (SD) [2]: 60.0 (48.22) | HAQ-Health, Observed, Median [2]: 80.0 | HAQ-Pain, Change from Baseline, Mean (SD) [2]: −41.0 (25.24) | HAQ-Pain, Change from Baseline, Median [2]: −29.0 | HAQ-Pain, Observed, Mean (SD) [2]: 4.0 (5.20) | HAQ-Pain, Observed, Median [2]: 1.0
